The source of these data is PubChem BioAssay (NCI).

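Each compound was tested at five concentrations against cells in 96-well plates for 48 hours. TGI: concentration producing complete growth inhibition.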

Among the test systems are OVCAR-3 ovarian; M14 melanoma; HCC-2998 colon; OVCAR-4 ovarian; NCI-H460 lung; SN12C renal; RXF 393 renal; NCI-H23 lung; HT29 colon; PC-3 prostate; SK-MEL-28 melanoma; T-47D breast; MDA-MB-231 breast; UACC-257 melanoma; CAKI-1 renal; BT-549 breast; UACC-62 melanoma; SF-539 CNS; 786-0 renal; SK-OV-3 ovarian.
Common to all, as to assay: NCI-60 cell line screen, 48 h

As to `C=CCN(CCN(CC=C)S(=O)(=O)c1ccc(C)cc1)S(=O)(=O)c1ccc(C)cc1`, the TGI with OVCAR-3 ovarian, in the assay with M14 melanoma, in the assay on HCC-2998 colon, with OVCAR-4 ovarian, in the assay on NCI-H460 lung and with SN12C renal was above 100 µM in each case. The TGI in the assay on RXF 393 renal, in the assay on NCI-H23 lung, with HT29 colon, in the assay with PC-3 prostate, in the assay with SK-MEL-28 melanoma and in the assay on T-47D breast was above 100 µM in each case. Moreover, the TGI with MDA-MB-231 breast and in the assay on UACC-257 melanoma was above 100 µM each time.
On to `O=C1/C(=C/c2ccccc2)CCCc2ccccc21`, for which the TGI with OVCAR-3 ovarian was 35.2 µM; in the assay with M14 melanoma, 41.4 µM; in the assay with CAKI-1 renal it was 76.2 µM; in the assay on OVCAR-4 ovarian it was 32 µM; in the assay with NCI-H460 lung, 31.4 µM; in the assay on SN12C renal, 33.8 µM. Further, the TGI in the assay on NCI-H23 lung was 34.2 µM; in the assay with HT29 colon, 36 µM; with PC-3 prostate it was 35.1 µM; in the assay on BT-549 breast it was 36 µM; with UACC-62 melanoma, 28.6 µM; with SK-MEL-28 melanoma it was 32.6 µM. In addition, the TGI in the assay with SF-539 CNS is 32.1 µM; in the assay with MDA-MB-231 breast it was 39.1 µM; with 786-0 renal, 31.3 µM; in the assay with UACC-257 melanoma, 33.3 µM; with SK-OV-3 ovarian it was above 100 µM.
As for `O=C(c1ccco1)N(C(=S)N1CCN(c2ccccn2)CC1)c1ccccc1`, the TGI in the assay on OVCAR-3 ovarian, with M14 melanoma, in the assay with CAKI-1 renal, in the assay with OVCAR-4 ovarian, in the assay with NCI-H460 lung and in the assay with SN12C renal was above 100 µM each time. Also, the TGI in the assay on RXF 393 renal, in the assay with NCI-H23 lung, in the assay on HT29 colon, in the assay with UACC-62 melanoma, in the assay with SK-MEL-28 melanoma and with SF-539 CNS was above 100 µM in each case. Also, the TGI in the assay with 786-0 renal, in the assay on UACC-257 melanoma and in the assay with SK-OV-3 ovarian was above 100 µM each time.
Consider `COc1ccc(/C(Cl)=C(\C=O)c2ccc(Cl)cc2)cc1OC`, for which the TGI in the assay with OVCAR-3 ovarian was 31.7 µM; with M14 melanoma, 97.3 µM; in the assay with CAKI-1 renal it was 49.2 µM; in the assay with HCC-2998 colon it was 76.2 µM; in the assay with OVCAR-4 ovarian, 73.6 µM; in the assay with NCI-H460 lung, above 100 µM. In addition, the TGI worked out at 16.6 µM with SN12C renal; 20.7 µM with RXF 393 renal; 8.36 µM in the assay on NCI-H23 lung; 20.8 µM with HT29 colon; 39.9 µM in the assay on UACC-62 melanoma; 37.4 µM in the assay with UACC-257 melanoma. In the assay on SK-OV-3 ovarian, this compound had a TGI above 100 µM.
Regarding `C=CCn1c(=N)/c(=C(\N)O)s/c1=C1/SC(=S)N(c2ccc(C)cc2)C1=O`, the TGI in the assay with OVCAR-3 ovarian, in the assay with NCI-H460 lung, with NCI-H23 lung, with HT29 colon, in the assay with UACC-62 melanoma and with SK-MEL-28 melanoma was above 100 µM throughout. For the same compound, the TGI with SF-539 CNS, in the assay with UACC-257 melanoma and in the assay on SK-OV-3 ovarian was above 100 µM throughout.
For the compound `CN1NC(c2ccccc2)=C(C#N)C(=O)CC1c1ccc(Br)cc1` (stereo unspecified), the TGI was 45.8 µM with M14 melanoma; above 100 µM with CAKI-1 renal; above 100 µM with HCC-2998 colon; above 100 µM in the assay on OVCAR-4 ovarian; above 100 µM with NCI-H460 lung; above 100 µM with SN12C renal. Moreover, the TGI is above 100 µM in the assay on RXF 393 renal; above 100 µM in the assay with NCI-H23 lung; 75.6 µM with HT29 colon; above 100 µM with SK-MEL-28 melanoma; above 100 µM with UACC-257 melanoma; above 100 µM with SK-OV-3 ovarian.
On to `CNC(=S)/C(C#N)=C(\N)N1CCCC1`, for which the TGI in the assay on OVCAR-3 ovarian, in the assay with CAKI-1 renal, in the assay on HCC-2998 colon, in the assay on NCI-H460 lung, in the assay on SN12C renal and with RXF 393 renal was above 100 µM throughout. The TGI in the assay with NCI-H23 lung, in the assay with HT29 colon, in the assay on PC-3 prostate, in the assay with UACC-62 melanoma, with SK-MEL-28 melanoma and in the assay on T-47D breast was above 100 µM throughout. In addition, the TGI in the assay on SF-539 CNS, with MDA-MB-231 breast, with 786-0 renal and in the assay on SK-OV-3 ovarian was above 100 µM throughout.
`O=C1NC(=Nc2ccccc2)C(=Nc2ccccc2)N1c1ccccc1`: the TGI in the assay on CAKI-1 renal was determined as 31.7 µM; in the assay with HCC-2998 colon it was 30.7 µM; in the assay on OVCAR-4 ovarian, 33.1 µM; in the assay on NCI-H460 lung it was 30.8 µM; in the assay with SN12C renal it was 30.5 µM; in the assay with RXF 393 renal, 29.2 µM. Besides, the TGI in the assay on NCI-H23 lung was 30.8 µM; in the assay on HT29 colon it was 29.6 µM; in the assay with PC-3 prostate it was 27.6 µM; in the assay on UACC-62 melanoma, 25.3 µM; in the assay on SK-MEL-28 melanoma, 28.4 µM; with T-47D breast it was 33.2 µM. For the same compound, the TGI with SF-539 CNS came to 31.5 µM; with MDA-MB-231 breast, 35.6 µM; in the assay on 786-0 renal, 29 µM; in the assay with UACC-257 melanoma, 29.8 µM; in the assay with SK-OV-3 ovarian, 34.4 µM.
`O=c1[nH]nc(-c2ccc(F)cc2)cc1-c1ccccc1`: the TGI with OVCAR-3 ovarian, in the assay with M14 melanoma, in the assay on CAKI-1 renal, in the assay with HCC-2998 colon, with OVCAR-4 ovarian and in the assay with NCI-H460 lung was above 100 µM each time. For the same compound, the TGI with SN12C renal, in the assay on RXF 393 renal, in the assay on NCI-H23 lung, in the assay with HT29 colon, in the assay with PC-3 prostate and in the assay on UACC-62 melanoma was above 100 µM in each case. Further, the TGI with SK-MEL-28 melanoma, in the assay on T-47D breast, in the assay with SF-539 CNS, with MDA-MB-231 breast, with 786-0 renal and with UACC-257 melanoma was above 100 µM each time. For the same compound, the TGI in the assay with SK-OV-3 ovarian was above 100 µM.
With `CCN(CC)CCN1C(=O)C(=O)N(c2cccc3ccccc23)C1=O`, the TGI in the assay on OVCAR-3 ovarian, with M14 melanoma, with CAKI-1 renal, with HCC-2998 colon, in the assay with OVCAR-4 ovarian and in the assay with NCI-H460 lung was above 10 µM in each case. For the same compound, the TGI with SN12C renal, with RXF 393 renal, in the assay on NCI-H23 lung, in the assay on HT29 colon, in the assay on PC-3 prostate and in the assay on UACC-62 melanoma was above 10 µM each time. Moreover, the TGI in the assay with SK-MEL-28 melanoma, in the assay on T-47D breast, in the assay on SF-539 CNS, with MDA-MB-231 breast and in the assay on SK-OV-3 ovarian was above 10 µM throughout.
With `CC[n+]1c(/C=C/c2ccc(N(CCCl)CCCl)cc2)ccc2cc(I)ccc21`, the TGI with OVCAR-3 ovarian came out at 1.12 µM; with CAKI-1 renal it was 6.19 µM; in the assay with HCC-2998 colon, 2.58 µM; in the assay on OVCAR-4 ovarian, 2.29 µM; in the assay on NCI-H460 lung it was 10.1 µM; with SN12C renal, 2.71 µM. Moreover, the TGI in the assay on RXF 393 renal was 3.77 µM; with NCI-H23 lung, 23.5 µM; with HT29 colon, 8.19 µM; in the assay on UACC-62 melanoma, 1.68 µM; in the assay on SF-539 CNS, 2.4 µM; in the assay on UACC-257 melanoma, 2.61 µM. The TGI with SK-OV-3 ovarian came to 6.42 µM.
As for `C#CC(O)/C=C/C(O)CCCC(O)CC#CC(O)C#CCCCCC(O)/C=C/CCCC(O)/C=C/CCCCCCCCCCCCCC(O)C(O)C#CC(=O)O` (stereo unspecified), the TGI in the assay with M14 melanoma, in the assay on CAKI-1 renal, with HCC-2998 colon, in the assay with OVCAR-4 ovarian, in the assay with NCI-H460 lung and with SN12C renal was above 25 µM each time. In addition, the TGI in the assay with RXF 393 renal, in the assay with NCI-H23 lung, in the assay with HT29 colon, in the assay with PC-3 prostate, with UACC-62 melanoma and in the assay with SK-MEL-28 melanoma was above 25 µM throughout. Moreover, the TGI with T-47D breast, in the assay with MDA-MB-231 breast, in the assay on 786-0 renal, in the assay on UACC-257 melanoma and in the assay with SK-OV-3 ovarian was above 25 µM each time.
With `C1=NCCOCCN=Cc2ccc(cc2)OCc2cccc(n2)COc2ccc1cc2`, the TGI in the assay with OVCAR-3 ovarian, in the assay with M14 melanoma, in the assay on OVCAR-4 ovarian, with NCI-H460 lung, with SN12C renal and in the assay with RXF 393 renal was above 100 µM throughout. For the same compound, the TGI in the assay with NCI-H23 lung, with HT29 colon, with PC-3 prostate, with BT-549 breast, in the assay with UACC-62 melanoma and in the assay with SK-MEL-28 melanoma was above 100 µM in each case. Moreover, the TGI in the assay on SF-539 CNS, with MDA-MB-231 breast, in the assay on 786-0 renal, with UACC-257 melanoma and with SK-OV-3 ovarian was above 100 µM in each case.
For `OC12c3ccccc3C1CCCCCC21OCCCO1` (stereo unspecified), the TGI in the assay on OVCAR-3 ovarian, with M14 melanoma, with CAKI-1 renal, with OVCAR-4 ovarian, in the assay on NCI-H460 lung and in the assay on SN12C renal was above 100 µM in each case. In addition, the TGI in the assay with RXF 393 renal, in the assay with NCI-H23 lung, with HT29 colon, in the assay with UACC-62 melanoma, in the assay on SK-MEL-28 melanoma and in the assay on SF-539 CNS was above 100 µM in each case. For the same compound, the TGI with 786-0 renal, in the assay with UACC-257 melanoma and with SK-OV-3 ovarian was above 100 µM in each case.
